In patent publication US20170190671A1, “BIS(ARYL)CATECHOL DERIVATIVES AS HERBICIDES” (E I DU PONT DE NEMOURS AND COMPANY, priority 2014, published 2017):

Experiments:
Assay in all cases: Test C preemergence
Type in all cases: in vivo
[1] = system: pigweed (Amaranthus retroflexus); conditions: Amaranthus retroflexus, pre-emergence, 336 h, preemergence, scale 0 to 100, read-out: Plant response rating, Pigweed
How it was run: (§1)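 Steps: plant seeds in loam-sand soil and treat preemergence, or grow plants in peat-based medium to 2-18 cm and spray; compound formulated in non-phytotoxic solvent/surfactant; hold in greenhouse 13-15 days; score visually versus controls from 0 (no effect) to 100 (complete control).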

[2] = system: Italian ryegrass (Lolium multiflorum); conditions: Lolium multiflorum, pre-emergence, 336 h, preemergence, scale 0 to 100, read-out: Plant response rating, Ryegrass, Italian
How it was run: as §1

[3] = system: oilseed rape (Brassica napus); conditions: Brassica napus, pre-emergence, preemergence, scale 0 to 100, read-out: Plant response rating, Oilseed Rape
How it was run: as §1

[4] = system: velvetleaf (Abutilon theophrasti); conditions: Abutilon theophrasti, pre-emergence, preemergence, scale 0 to 100, read-out: Plant response rating, Velvetleaf
How it was run: as §1

[5] = system: ragweed (common ragweed, Ambrosia elatior); conditions: Ambrosia artemisiifolia, pre-emergence, 336 h, preemergence, scale 0 to 100, read-out: Plant response rating, Ragweed
How it was run: as §1

[6] = system: blackgrass (Alopecurus myosuroides); conditions: Alopecurus myosuroides, pre-emergence, 336 h, preemergence, scale 0 to 100, read-out: Plant response rating, Blackgrass
How it was run: as §1

[7] = system: lambsquarters (Chenopodium album); conditions: Chenopodium album, pre-emergence, 336 h, preemergence, scale 0 to 100, read-out: Plant response rating, Lambsquarters
How it was run: as §1

[8] = system: giant foxtail (Setaria faberii); conditions: Setaria faberi, pre-emergence, 336 h, preemergence, scale 0 to 100, read-out: Plant response rating, Foxtail, Giant
How it was run: as §1

[9] = system: morningglory (Ipomoea coccinea); conditions: Ipomoea, pre-emergence, 336 h, preemergence, scale 0 to 100, read-out: Plant response rating, Morningglory
How it was run: as §1

[10] = system: large (Lg) crabgrass (Digitaria sanguinalis); conditions: Digitaria sanguinalis, pre-emergence, 336 h, preemergence, scale 0 to 100, read-out: Plant response rating, Crabgrass, Large
How it was run: as §1

[11] = system: corn (Zea mays); conditions: Zea mays, pre-emergence, 336 h, preemergence, scale 0 to 100
How it was run: as §1

[12] = system: winter wheat (Triticum aestivum); conditions: Triticum aestivum, pre-emergence, 336 h, preemergence, scale 0 to 100, read-out: Plant response rating, Wheat
How it was run: as §1

[13] = system: yellow nutsedge (Cyperus esculentus); conditions: Cyperus, pre-emergence, 336 h, preemergence, scale 0 to 100, read-out: Plant response rating, Nutsedge, Yellow
How it was run: as §1

[14] = system: soybean (Glycine max); conditions: Glycine max, pre-emergence, preemergence, scale 0 to 100, read-out: Plant response rating, Soybean
How it was run: as §1

[15] = system: waterhemp (common waterhemp, Amaranthus rudis); conditions: Amaranthus tuberculatus, pre-emergence, preemergence, scale 0 to 100, read-out: Plant response rating, Waterhemp
How it was run: as §1

Structure (SMILES): Fc1cccc(Oc2ncc(Cl)cn2)c1Oc1ncc(Br)cn1 [Compound 27, 5-bromo-2-[2-fluoro-6-[(5-chloro-2-pyrimidinyl)oxy]phenoxy]pyrimidine]
- pest or weed control at 31 g/ha ([1]; 31 g ai/ha): 100%
- pest or weed control at 62 g/ha ([1]; 62 g ai/ha): 100%
- pest or weed control at 125 g/ha ([1]; 125 g ai/ha): 100%
- pest or weed control at 31 g/ha ([2]; 31 g ai/ha): 10%
- pest or weed control at 62 g/ha ([2]; 62 g ai/ha): 55%
- pest or weed control at 125 g/ha ([2]; 125 g ai/ha): 80%
- pest or weed control at 250 g/ha ([2]; 250 g ai/ha): 95%
- plant injury at 31 g/ha ([3]; 31 g ai/ha): 85%
- plant injury at 62 g/ha ([3]; 62 g ai/ha): 100%
- plant injury at 125 g/ha ([3]; 125 g ai/ha): 100%
- plant injury at 250 g/ha ([3]; 250 g ai/ha): 100%
- pest or weed control at 31 g/ha ([4]; 31 g ai/ha): 60%
- pest or weed control at 62 g/ha ([4]; 62 g ai/ha): 95%
- pest or weed control at 125 g/ha ([4]; 125 g ai/ha): 100%
- pest or weed control at 250 g/ha ([4]; 250 g ai/ha): 100%
- pest or weed control at 31 g/ha ([5]; 31 g ai/ha): 20%
- pest or weed control at 62 g/ha ([5]; 62 g ai/ha): 60%
- pest or weed control at 125 g/ha ([5]; 125 g ai/ha): 70%
- pest or weed control at 250 g/ha ([5]; 250 g ai/ha): 85%
- pest or weed control at 31 g/ha ([6]; 31 g ai/ha): 15%
- pest or weed control at 62 g/ha ([6]; 62 g ai/ha): 60%
- pest or weed control at 125 g/ha ([6]; 125 g ai/ha): 90%
- pest or weed control at 31 g/ha ([7]; 31 g ai/ha): 80%
- pest or weed control at 62 g/ha ([7]; 62 g ai/ha): 85%
- pest or weed control at 125 g/ha ([7]; 125 g ai/ha): 100%
- pest or weed control at 31 g/ha ([8]; 31 g ai/ha): 80%
- pest or weed control at 62 g/ha ([8]; 62 g ai/ha): 100%
- pest or weed control at 125 g/ha ([8]; 125 g ai/ha): 100%
- pest or weed control at 31 g/ha ([9]; 31 g ai/ha): 5%
- pest or weed control at 62 g/ha ([9]; 62 g ai/ha): 40%
- pest or weed control at 125 g/ha ([9]; 125 g ai/ha): 98%
- pest or weed control at 31 g/ha ([10]; 31 g ai/ha): 98%
- pest or weed control at 62 g/ha ([10]; 62 g ai/ha): 98%
- pest or weed control at 125 g/ha ([10]; 125 g ai/ha): 100%
- Corn plant response rating (crop injury, 0 = no effect, 100 = complete kill) at 31 g/ha ([11]; 31 g ai/ha): 10%
- Corn plant response rating (crop injury, 0 = no effect, 100 = complete kill) at 62 g/ha ([11]; 62 g ai/ha): 45%
- Corn plant response rating (crop injury, 0 = no effect, 100 = complete kill) at 125 g/ha ([11]; 125 g ai/ha): 60%
- plant injury at 31 g/ha ([12]; 31 g ai/ha): 0%
- plant injury at 62 g/ha ([12]; 62 g ai/ha): 5%
- plant injury at 125 g/ha ([12]; 125 g ai/ha): 40%
- plant injury at 250 g/ha ([12]; 250 g ai/ha): 85%
- pest or weed control at 31 g/ha ([13]; 31 g ai/ha): 0%
- pest or weed control at 62 g/ha ([13]; 62 g ai/ha): 0%
- pest or weed control at 125 g/ha ([13]; 125 g ai/ha): 55%
- plant injury at 31 g/ha ([14]; 31 g ai/ha): 40%
- plant injury at 250 g/ha ([14]; 250 g ai/ha): 90%
- pest or weed control at 31 g/ha ([15]; 31 g ai/ha): 100%
- pest or weed control at 62 g/ha ([15]; 62 g ai/ha): 100%
- pest or weed control at 125 g/ha ([15]; 125 g ai/ha): 100%
- pest or weed control at 250 g/ha ([15]; 250 g ai/ha): 100%
